One may read the IC50 as the point on the concentration scale where inhibition reaches its midpoint. A high value points to weaker potency in that assay.

The structures appear in SMILES notation.

Test [1] deals with T1, Lck (Homo sapiens, UniProt P06239).
T1 construct: purchased Reaction Biology Corp
The experiment in a line: Biochemical IC50 on Lck at Km and 1 mM ATP. Here is the method:
(§1) Full panel kinase profiling and kinase IC50 measurement were performed by using Reaction Biology Corp. (San Diego, USA).

Another test deals with T2, c-Src (Homo sapiens, UniProt P12931).
T2 construct: purchased Reaction Biology Corp
T2 sequence (P12931 whole entry): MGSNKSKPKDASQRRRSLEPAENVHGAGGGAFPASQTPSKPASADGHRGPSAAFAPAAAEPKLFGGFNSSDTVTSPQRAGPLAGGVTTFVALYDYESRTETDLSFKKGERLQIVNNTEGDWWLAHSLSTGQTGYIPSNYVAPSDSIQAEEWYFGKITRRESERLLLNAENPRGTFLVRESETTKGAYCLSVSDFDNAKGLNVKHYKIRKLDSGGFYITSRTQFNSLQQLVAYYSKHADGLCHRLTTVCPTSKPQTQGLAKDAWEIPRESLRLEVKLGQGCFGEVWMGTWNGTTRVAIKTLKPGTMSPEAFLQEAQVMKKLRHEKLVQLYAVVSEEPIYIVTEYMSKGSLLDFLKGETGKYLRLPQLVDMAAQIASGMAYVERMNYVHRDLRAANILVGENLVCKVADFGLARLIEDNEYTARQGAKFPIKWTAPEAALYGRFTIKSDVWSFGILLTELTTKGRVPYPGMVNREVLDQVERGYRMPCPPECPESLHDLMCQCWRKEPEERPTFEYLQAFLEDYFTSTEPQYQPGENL
As to the kind of experiment: In vitro kinase assay (IC50). It counts as biochemical. On the procedure:
as §1

In the next test the target is T3, Abl1 (Homo sapiens, UniProt P00519).
T3 construct: purchased Reaction Biology Corp
T3 sequence (P00519 whole entry): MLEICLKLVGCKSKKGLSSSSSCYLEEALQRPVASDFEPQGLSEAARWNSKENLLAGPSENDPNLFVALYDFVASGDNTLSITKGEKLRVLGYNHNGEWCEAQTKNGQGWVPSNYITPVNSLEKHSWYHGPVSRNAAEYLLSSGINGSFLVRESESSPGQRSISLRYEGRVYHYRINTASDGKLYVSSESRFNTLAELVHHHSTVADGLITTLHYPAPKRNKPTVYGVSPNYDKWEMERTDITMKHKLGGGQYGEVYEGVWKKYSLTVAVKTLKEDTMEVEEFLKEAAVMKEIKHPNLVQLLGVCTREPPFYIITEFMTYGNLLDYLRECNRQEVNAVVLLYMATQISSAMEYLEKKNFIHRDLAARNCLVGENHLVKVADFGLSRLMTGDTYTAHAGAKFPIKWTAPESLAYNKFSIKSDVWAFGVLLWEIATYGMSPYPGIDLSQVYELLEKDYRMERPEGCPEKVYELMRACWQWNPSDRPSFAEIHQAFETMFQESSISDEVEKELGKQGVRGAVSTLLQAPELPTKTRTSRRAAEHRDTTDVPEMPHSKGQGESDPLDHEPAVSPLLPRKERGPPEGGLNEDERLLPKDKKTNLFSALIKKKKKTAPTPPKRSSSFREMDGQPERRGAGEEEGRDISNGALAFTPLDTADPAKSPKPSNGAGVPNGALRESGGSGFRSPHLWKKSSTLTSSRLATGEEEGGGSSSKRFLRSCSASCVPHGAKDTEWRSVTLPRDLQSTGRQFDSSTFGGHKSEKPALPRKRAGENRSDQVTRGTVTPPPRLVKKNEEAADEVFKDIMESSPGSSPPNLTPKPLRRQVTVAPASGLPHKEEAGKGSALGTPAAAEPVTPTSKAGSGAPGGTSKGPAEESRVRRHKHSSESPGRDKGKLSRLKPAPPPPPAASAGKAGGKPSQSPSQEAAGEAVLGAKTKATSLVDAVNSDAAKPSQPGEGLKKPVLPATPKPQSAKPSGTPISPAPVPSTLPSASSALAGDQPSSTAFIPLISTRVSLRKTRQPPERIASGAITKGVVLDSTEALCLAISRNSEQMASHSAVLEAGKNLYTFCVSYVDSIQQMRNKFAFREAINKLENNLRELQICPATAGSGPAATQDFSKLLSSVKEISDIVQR
The experiment in a line: In vitro kinase assay (IC50). It counts as biochemical. Here is the method: as §1

For test [2], the target named is T1, Lck. The experiment in a line: In vitro kinase assay (IC50). It counts as biochemical. On the procedure:
as §1

For a further test, the target named is T4, p38a (Homo sapiens, UniProt Q16539).
T4 construct: purchased Reaction Biology Corp
T4 sequence (Q16539 whole entry): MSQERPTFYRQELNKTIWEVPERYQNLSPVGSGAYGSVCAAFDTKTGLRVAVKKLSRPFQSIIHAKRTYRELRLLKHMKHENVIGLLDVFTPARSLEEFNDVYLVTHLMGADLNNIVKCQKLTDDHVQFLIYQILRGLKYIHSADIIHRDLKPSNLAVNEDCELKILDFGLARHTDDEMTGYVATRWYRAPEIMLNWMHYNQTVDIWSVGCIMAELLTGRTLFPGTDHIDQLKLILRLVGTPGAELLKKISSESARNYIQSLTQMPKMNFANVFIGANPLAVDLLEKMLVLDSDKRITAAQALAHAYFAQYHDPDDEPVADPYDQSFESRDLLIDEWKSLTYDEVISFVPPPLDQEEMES
As to the kind of experiment: In vitro kinase assay (IC50). It counts as biochemical. Here is the method:
as §1

T1 sequence (P06239 whole entry): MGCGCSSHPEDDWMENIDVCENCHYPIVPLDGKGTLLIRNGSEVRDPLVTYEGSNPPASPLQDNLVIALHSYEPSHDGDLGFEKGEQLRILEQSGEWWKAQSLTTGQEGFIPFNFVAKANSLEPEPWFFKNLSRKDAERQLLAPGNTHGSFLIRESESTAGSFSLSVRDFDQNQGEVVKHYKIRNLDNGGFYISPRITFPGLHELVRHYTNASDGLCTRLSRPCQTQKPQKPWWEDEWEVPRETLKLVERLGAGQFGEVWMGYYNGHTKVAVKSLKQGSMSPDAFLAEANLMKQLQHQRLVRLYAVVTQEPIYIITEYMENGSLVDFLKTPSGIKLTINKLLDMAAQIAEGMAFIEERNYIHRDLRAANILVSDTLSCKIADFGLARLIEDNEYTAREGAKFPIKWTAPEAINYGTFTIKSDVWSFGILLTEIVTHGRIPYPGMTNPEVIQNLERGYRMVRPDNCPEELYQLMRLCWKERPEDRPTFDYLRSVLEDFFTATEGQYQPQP

As for `Cc1ccc(Nc2ncc3c(n2)N(C)C(=O)N(c2cc(NC(=O)c4ccc5c(c4)N(Cc4ccccc4)C(=O)[C@H](CC(C)C)N=C5c4ccccc4)ccc2C)C3)cn1` [11b, (S)-1-benzyl-3-isobutyl-N-(4-methyl-3-(1-methyl-7-((6-methylpyridin-3-yl)amino)-2-oxo-1,4-dihydropyrimido[4,5-d]pyrimidin-3(2H)-yl)phenyl)-2-oxo-5-phenyl-2,3-dihydro-1H-benzo[e][1,4]diazepine-8-carboxamide], the IC50 is 510 nM at Lck [1] (ATP conc. 14 µM (Km)); more than 100000 nM on Lck [1] (ATP conc. 1 mM); 410 nM at c-Src; 453 nM against Abl1; 37.3 nM against Lck [2]; 3430 nM at p38a. Further, the mode of inhibition result at Lck [1] (IC50 at Km vs 1 mM ATP) was “ATP competitive kinase inhibitors”. Besides, at Lck [2], the “selectivity for Lck over c-Src” value was “over 10 fold”.
Consider `CC[C@@H](C)[C@H]1N=C(c2ccccc2)c2ccc(C(=O)Nc3ccc(C)c(N4Cc5cnc(Nc6ccc(C)nc6)nc5N(C)C4=O)c3)cc2NC1=O` [11e, (R)-3-((R)-s-butyl)-N-(4-methyl-3-(1-methyl-7-((6-methylpyridin-3-yl)amino)-2-oxo-1,4-dihydropyrimido[4,5-d]pyrimidin-3(2H)-yl)phenyl)-2-oxo-5-phenyl-2,3-dihydro-1H-benzo[e][1,4]diazepine-8-carboxamide], for which the IC50 at c-Src was 12.8 nM; on Abl1 it was 55.2 nM; at Lck [2] it was 10.7 nM; on p38a it was 250 nM.
